Laboratory results from patent publication US20160045528A1, “COMBINATION THERAPY FOR TREATING A PARAMYXOVIRUS” (priority 2014, published 2016).

Tested on: RSV subgenomic replicon 395 HeLa
Assay: RSV replicon assay (Renilla luciferase, 395 HeLa replicon cells)
Assay type: cell-based
Conditions: human respiratory syncytial virus, 168 h
Source text: The RSV subgenomic replicon 395 HeLa was licensed from Apath (Brooklyn, N.Y.) and was originally developed by Dr. Mark Meeples of Center for Vaccines & Immunity, the Research Institute at Nationwide Children's Hospital in Columbus, Ohio. To generate subgenomic RSV replicon, three glycoprotein genes, those for SH, G, and F, from a full-length recombinant GFP-expressing (rg) RSV antigenomic cDNA were deleted. In their place, a blasticidin S deaminase (bsd) gene was inserted. Through multiple steps, the RSV replicon was established in HeLa cells. The 395 HeLa cells were cultured in Dulbecco's Modified Eagle Medium (DMEM) containing 4500 mg/L D-glucose, L-glutamine, and 110 mg/L sodium pyruvate (Invitrogen, Cat. #11995-040). The medium was further supplemented with 10% (v/v) fetal bovine serum (FBS) (Mediatech, Cat. #35-010-CV), 1% (v/v) penicillin/streptomycin (Mediatech, Cat. #30-002-CI), and 10 μg/mL of Blasticidin (BSD) (Invivogen, Cat. code ant-b1-1). Cells were maintained at 37° C. in a humidified 5% CO2 atmosphere.
Determination of 50% inhibitory concentration […], 90% inhibitory concentration (C90) and 50% cytotoxic concentration […] in RSV replicon cells were performed by the following procedure. […]
The Renilla Luciferase Assay System (Promega, Cat. #E2820) was used to measure anti-RSV replicon activity. […] Luminescence was recorded using a Perkin Elmer multilabel counter Victor3V.

[2H]C([2H])(OC(=O)C(C)C)[C@@]1(CCl)O[C@@H](n2ccc(N)nc2=O)[C@H](F)[C@@H]1OC(=O)C(C)C [Compound 31]
EC50: < 1000 nM
